The first assay has as its target FGFR3 enzyme (Homo sapiens (Human), UniProt P22607). In words: FGFR Enzymatic Assay (peptide phosphorylation, FRET), FGFR3. The format is biochemical. To be noted: IC50 ratio showing FGFR3 selectivity; pre-incubated for 4 hours. As to the method: (§1) The inhibitor potency of the exemplified compounds was measured in an enzyme assay that measures peptide phosphorylation using FRET measurements to detect product formation. Inhibitors were serially diluted in DMSO and a volume of 0.5 μL was transferred to the wells of a 384-well plate.
(§2) GraphPad prism3 was used to analyze the data.
FGFR3 enzyme, sequence (P22607 23-806): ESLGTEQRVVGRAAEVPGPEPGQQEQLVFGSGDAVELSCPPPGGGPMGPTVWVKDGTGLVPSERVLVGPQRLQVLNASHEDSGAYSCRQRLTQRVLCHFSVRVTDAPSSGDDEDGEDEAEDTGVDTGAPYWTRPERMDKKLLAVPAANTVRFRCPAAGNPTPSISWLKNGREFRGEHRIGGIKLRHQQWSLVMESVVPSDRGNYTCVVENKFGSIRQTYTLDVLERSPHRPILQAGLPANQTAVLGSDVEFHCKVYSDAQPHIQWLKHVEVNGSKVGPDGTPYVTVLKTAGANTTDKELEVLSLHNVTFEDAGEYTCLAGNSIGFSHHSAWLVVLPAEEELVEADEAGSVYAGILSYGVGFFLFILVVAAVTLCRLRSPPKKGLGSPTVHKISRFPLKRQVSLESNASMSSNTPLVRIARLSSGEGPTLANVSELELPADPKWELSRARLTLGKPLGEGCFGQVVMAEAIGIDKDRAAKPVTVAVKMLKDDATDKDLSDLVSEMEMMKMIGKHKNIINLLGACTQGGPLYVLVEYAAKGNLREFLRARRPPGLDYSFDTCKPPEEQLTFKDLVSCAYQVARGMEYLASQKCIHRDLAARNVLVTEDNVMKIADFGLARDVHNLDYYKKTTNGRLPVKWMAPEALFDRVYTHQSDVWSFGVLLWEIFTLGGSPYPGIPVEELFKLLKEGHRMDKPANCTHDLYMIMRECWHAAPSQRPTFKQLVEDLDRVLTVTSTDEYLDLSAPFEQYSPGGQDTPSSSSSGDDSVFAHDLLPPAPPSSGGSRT
FGFR4, sequence (P22455 22-802): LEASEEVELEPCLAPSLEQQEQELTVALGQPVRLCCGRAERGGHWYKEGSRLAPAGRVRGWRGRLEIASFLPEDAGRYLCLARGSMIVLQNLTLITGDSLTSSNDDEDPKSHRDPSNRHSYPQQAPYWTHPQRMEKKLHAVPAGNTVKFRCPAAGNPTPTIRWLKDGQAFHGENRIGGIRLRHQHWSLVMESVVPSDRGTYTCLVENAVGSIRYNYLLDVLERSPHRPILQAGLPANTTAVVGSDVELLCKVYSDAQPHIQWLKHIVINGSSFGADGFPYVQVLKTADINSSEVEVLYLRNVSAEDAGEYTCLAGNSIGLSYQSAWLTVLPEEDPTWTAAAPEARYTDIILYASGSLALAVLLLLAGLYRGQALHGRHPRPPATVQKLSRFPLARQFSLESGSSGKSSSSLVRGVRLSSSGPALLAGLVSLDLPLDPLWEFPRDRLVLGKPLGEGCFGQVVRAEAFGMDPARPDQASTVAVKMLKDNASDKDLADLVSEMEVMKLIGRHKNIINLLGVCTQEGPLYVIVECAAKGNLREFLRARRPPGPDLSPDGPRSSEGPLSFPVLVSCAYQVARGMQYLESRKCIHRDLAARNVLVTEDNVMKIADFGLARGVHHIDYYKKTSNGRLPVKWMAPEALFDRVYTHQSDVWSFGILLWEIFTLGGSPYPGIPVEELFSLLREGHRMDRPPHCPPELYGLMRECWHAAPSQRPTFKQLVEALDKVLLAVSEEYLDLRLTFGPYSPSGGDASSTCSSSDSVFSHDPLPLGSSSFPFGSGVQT
On to `COc1cc(OC)c(F)c(N2Cc3cnc(-c4cnn(CC5CCCS(=O)(=O)N5)c4)cc3C3(CC3)C2=O)c1F` (centres unmarked) [Example 162, 2′-(2,6-difluoro-3,5-dimethoxyphenyl)-6′-{1-[(1,1-dioxido-1,2-thiazinan-3-yl)methyl]-1H-pyrazol-4-yl}-1′H-spiro[cyclopropane-1,4′-[2,7]naphthyridin]-3′(2′H)-one], for which the FGFR1/FGFR3 is listed as greater than 5 and the FGFR4/FGFR3 is given as greater than 1.

Turning to `COc1cc(OC)c(F)c(N2Cc3cnc(-c4cn(C5CCN(C)C5)nc4C)cc3C3(CC3)C2=O)c1F` (centres unmarked) [Example 163, 2′-(2,6-difluoro-3,5-dimethoxyphenyl)-6′-(3-methyl-1-(1-methylpyrrolidin-3-yl)-1H-pyrazol-4-yl)-1′H-spiro[cyclopropane-1,4′-[2,7]naphthyridin]-3′(2′H)-one], the FGFR1/FGFR3 is reported as greater than 3 and the FGFR4/FGFR3 was greater than 3.

`COc1cc(OC)c(F)c(N2Cc3cnc(-c4cn(CCN(C)C)nc4C)cc3C3(CC3)C2=O)c1F` [Example 164, 2′-(2,6-difluoro-3,5-dimethoxyphenyl)-6′-(1-(2-(dimethylamino)ethyl)-3-methyl-1H-pyrazol-4-yl)-1′H-spiro[cyclopropane-1,4′-[2,7]naphthyridin]-3′(2′H)-one]: the FGFR1/FGFR3 is given as greater than 3 and the FGFR4/FGFR3 is greater than 3.

With `COc1cc(OC)c(F)c(N2Cc3cnc(-c4cn(CCC5CCNCC5)nc4C)cc3C3(CC3)C2=O)c1F` [Example 165, 2′-(2,6-difluoro-3,5-dimethoxyphenyl)-6′-(3-methyl-1-(2-(piperidin-4-yl)ethyl)-1H-pyrazol-4-yl)-1′H-spiro[cyclopropane-1,4′-[2,7]naphthyridin]-3′(2′H)-one], the FGFR1/FGFR3 was greater than 3 and the FGFR4/FGFR3 is given as greater than 3.

Consider `COc1cc(OC)c(F)c(N2Cc3cnc(-c4cnn(CC5CN(S(C)(=O)=O)C5)c4)cc3C3(CC3)C2=O)c1F` [Example 166, 2′-(2,6-difluoro-3,5-dimethoxyphenyl)-6′-(1-((1-(methylsulfonyl)azetidin-3-yl)methyl)-1H-pyrazol-4-yl)-1′H-spiro[cyclopropane-1,4′-[2,7]naphthyridin]-3′(2′H)-one], for which the FGFR1/FGFR3 is reported as greater than 3 and the FGFR4/FGFR3 was greater than 3.

As for `COc1cc(OC)c(F)c(N2Cc3cnc(-c4cnn(CC5CN(C(C)=O)C5)c4)cc3C3(CC3)C2=O)c1F` [Example 167, 6′-(1-((1-acetylazetidin-3-yl)methyl)-1H-pyrazol-4-yl)-2′-(2,6-difluoro-3,5-dimethoxyphenyl)-1′H-spiro[cyclopropane-1,4′-[2,7]naphthyridin]-3′(2′H)-one], the FGFR1/FGFR3 is greater than 3 and the FGFR4/FGFR3 was greater than 3.

As for `CCN1C(=O)N(c2c(F)c(OC)cc(OC)c2F)Cc2cnc(-c3cn(CC)nc3C)cc21` [Example 168, 3-(2,6-difluoro-3,5-dimethoxyphenyl)-1-ethyl-7-(1-ethyl-3-methyl-1H-pyrazol-4-yl)-3,4-dihydropyrido[4,3-d]pyrimidin-2(1H)-one], the FGFR1/FGFR3 was greater than 5 and the FGFR4/FGFR3 is on record as greater than 3.

Consider `CCN1C(=O)N(c2c(F)c(OC)cc(OC)c2F)Cc2cnc(-c3cnn(C)c3)cc21` [Example 169, 3-(2,6-difluoro-3,5-dimethoxyphenyl)-1-ethyl-7-(1-methyl-1H-pyrazol-4-yl)-3,4-dihydropyrido[4,3-d]pyrimidin-2(1H)-one], for which the FGFR1/FGFR3 was greater than 3 and the FGFR4/FGFR3 is given as greater than 5.

`CCNC(=O)c1ccc(-c2cc3c(cn2)CN(c2c(F)c(OC)cc(OC)c2F)C(=O)N3CC)cn1` [Example 175, 5-(3-(2,6-difluoro-3,5-dimethoxyphenyl)-1-ethyl-2-oxo-1,2,3,4-tetrahydropyrido[4,3-d]pyrimidin-7-yl)-N-ethylpicolinamide]: the FGFR1/FGFR3 is greater than 10 and the FGFR4/FGFR3 is reported as greater than 5.

`CCN1C(=O)N(c2c(F)c(OC)cc(OC)c2F)Cc2cnc(-c3ccc(C(=O)NC4CC4)nc3)cc21` [Example 176, N-cyclopropyl-5-(3-(2,6-difluoro-3,5-dimethoxyphenyl)-1-ethyl-2-oxo-1,2,3,4-tetrahydropyrido[4,3-d]pyrimidin-7-yl)picolinamide]: the FGFR1/FGFR3 is greater than 10 and the FGFR4/FGFR3 was greater than 5.

Turning to `CCN1C(=O)N(c2c(F)c(OC)cc(OC)c2F)Cc2cnc(-c3ccc(C(=O)NCCO)nc3)cc21` [Example 177, 5-(3-(2,6-difluoro-3,5-dimethoxyphenyl)-1-ethyl-2-oxo-1,2,3,4-tetrahydropyrido[4,3-d]pyrimidin-7-yl)-N-(2-hydroxyethyl)picolinamide], the FGFR1/FGFR3 is greater than 5 and the FGFR4/FGFR3 is reported as greater than 10.

For the compound `CCN1C(=O)N(c2c(F)c(OC)cc(OC)c2F)Cc2cnc(-c3ccc(C(=O)NC(C)C)nc3)cc21` [Example 178, 5-(3-(2,6-difluoro-3,5-dimethoxyphenyl)-1-ethyl-2-oxo-1,2,3,4-tetrahydropyrido[4,3-d]pyrimidin-7-yl)-N-isopropylpicolinamide], the FGFR1/FGFR3 was greater than 5 and the FGFR4/FGFR3 is greater than 5.

Consider `CCCNC(=O)c1ccc(-c2cc3c(cn2)CN(c2c(F)c(OC)cc(OC)c2F)C(=O)N3CC)cn1` [Example 179, 5-(3-(2,6-difluoro-3,5-dimethoxyphenyl)-1-ethyl-2-oxo-1,2,3,4-tetrahydropyrido[4,3-d]pyrimidin-7-yl)-N-propylpicolinamide], for which the FGFR1/FGFR3 was greater than 5 and the FGFR4/FGFR3 is reported as greater than 10.

For `CCN1C(=O)N(c2c(F)c(OC)cc(OC)c2F)Cc2cnc(-c3ccc(CC#N)cc3)cc21` [Example 180, 2-(4-(3-(2,6-difluoro-3,5-dimethoxyphenyl)-1-ethyl-2-oxo-1,2,3,4-tetrahydropyrido[4,3-d]pyrimidin-7-yl)phenyl)acetonitrile], the FGFR1/FGFR3 was greater than 5 and the FGFR4/FGFR3 is greater than 5.

As for `CCN1C(=O)N(c2c(F)c(OC)cc(OC)c2F)Cc2cnc(-c3ccc(C4(C#N)CCC4)cc3)cc21` [Example 181, 1-(4-(3-(2,6-difluoro-3,5-dimethoxyphenyl)-1-ethyl-2-oxo-1,2,3,4-tetrahydropyrido[4,3-d]pyrimidin-7-yl)phenyl)cyclobutanecarbonitrile], the FGFR1/FGFR3 was greater than 5 and the FGFR4/FGFR3 was greater than 10.

As for `CCN1C(=O)N(c2c(F)c(OC)cc(OC)c2F)Cc2cnc(-c3ccc(N4CCOCC4)nc3)cc21` [Example 182, 3-(2,6-difluoro-3,5-dimethoxyphenyl)-1-ethyl-7-(6-morpholinopyridin-3-yl)-3,4-dihydropyrido[4,3-d]pyrimidin-2(1H)-one], the FGFR1/FGFR3 was greater than 5 and the FGFR4/FGFR3 is reported as greater than 5.

`CCN1C(=O)N(c2c(F)c(OC)cc(OC)c2F)Cc2cnc(-c3ccc(C4(C#N)CC4)cc3)cc21` [Example 183, 1-(4-(3-(2,6-difluoro-3,5-dimethoxyphenyl)-1-ethyl-2-oxo-1,2,3,4-tetrahydropyrido[4,3-d]pyrimidin-7-yl)phenyl)cyclopropanecarbonitrile]: the FGFR1/FGFR3 is greater than 3 and the FGFR4/FGFR3 is on record as greater than 10.

For `CCN1C(=O)N(c2c(F)c(OC)cc(OC)c2F)Cc2cnc(-c3ccc(C(N)=O)nc3)cc21` [Example 184, 5-(3-(2,6-difluoro-3,5-dimethoxyphenyl)-1-ethyl-2-oxo-1,2,3,4-tetrahydropyrido[4,3-d]pyrimidin-7-yl)picolinamide], the FGFR1/FGFR3 was greater than 5 and the FGFR4/FGFR3 is listed as greater than 5.

For `COc1cc(OC)c(F)c(N2Cc3cnc(-c4ccncc4)cc3C3(CC3)C2=O)c1F` [Example 185, 2′-(2,6-difluoro-3,5-dimethoxyphenyl)-6′-(pyridin-4-yl)-1′H-spiro[cyclopropane-1,4′-[2,7]naphthyridin]-3′(2′H)-one], the FGFR1/FGFR3 is recorded as greater than 3 and the FGFR4/FGFR3 was greater than 3.

In the case of `COc1cc(OC)c(F)c(N2Cc3cnc(-c4cnn(C)c4)cc3C3(CC3)C2=O)c1F` [Example 186, 2′-(2,6-difluoro-3,5-dimethoxyphenyl)-6′-(1-methyl-H-pyrazol-4-yl)-1′,2′-dihydro-3′H-spiro[cyclopropane-1,4′-[2,7]naphthyridin]-3′-one], the FGFR1/FGFR3 is listed as greater than 5 and the FGFR4/FGFR3 is given as greater than 5.

As to `COc1cc(OC)c(F)c(N2Cc3cnc(-c4ccc(C5(C#N)CCC5)nc4)cc3N(Cc3nnc(C)o3)C2=O)c1F` [Example 187, 1-(5-{3-(2,6-difluoro-3,5-dimethoxyphenyl)-1-[(5-methyl-1,3,4-oxadiazol-2-yl)methyl]-2-oxo-1,2,3,4-tetrahydropyrido[4,3-d]pyrimidin-7-yl}pyridin-2-yl)cyclobutanecarbonitrile], the FGFR1/FGFR3 was greater than 10 and the FGFR4/FGFR3 is given as greater than 10.

Regarding `COc1cc(OC)c(F)c(N2Cc3cnc(-c4ccc(C5(C#N)CCC5)nc4)cc3N(c3cnn(C)c3)C2=O)c1F` [Example 188, 1-{5-[3-(2,6-difluoro-3,5-dimethoxyphenyl)-1-(1-methyl-1H-pyrazol-4-yl)-2-oxo-1,2,3,4-tetrahydropyrido[4,3-d]pyrimidin-7-yl]pyridin-2-yl}cyclobutanecarbonitrile], the FGFR1/FGFR3 is given as greater than 5 and the FGFR4/FGFR3 was greater than 5.

A further assay addresses FGFR4 (Homo sapiens (Human), UniProt P22455). Nature of the assay: FGFR Enzymatic Assay (peptide phosphorylation, FRET), FGFR4. The format is biochemical. The settings on record: IC50 ratio showing FGFR4 selectivity; pre-incubated for 4 hours. As to the method:
as §1
The enzymes were purchased from Millipore or Invitrogen.
as §2
Regarding `COc1cc(OC)c(F)c(N2Cc3cnc(-c4cc(N)ccc4C)cc3C3(CC3)C2=O)c1F` [Example 1, 6′-(5-amino-2-methylphenyl)-2′-(2,6-difluoro-3,5-dimethoxyphenyl)-1′H-spiro[cyclopropane-1,4′-[2,7]naphthyridin]-3′(2′H)-one], the FGFR1/FGFR4 is recorded as greater than 25, the FGFR2/FGFR4 was greater than 25 and the FGFR3/FGFR4 is listed as greater than 25.

Staying with this assay, now noted: ratio of IC50 data showing FGFR4 selectivity; pre-incubated for 5 to 10 minutes.
As to `COc1cc(OC)c(F)c(N2Cc3cnc(-c4cc(N)ccc4C)cc3C3(CC3)C2=O)c1F` [Example 1, 6′-(5-amino-2-methylphenyl)-2′-(2,6-difluoro-3,5-dimethoxyphenyl)-1′H-spiro[cyclopropane-1,4′-[2,7]naphthyridin]-3′(2′H)-one], the FGFR1/FGFR4 is on record as greater than 25, the FGFR2/FGFR4 is greater than 25 and the FGFR3/FGFR4 is on record as greater than 50.

The values above are taken from patent US10251892B2, “Bicyclic heterocycles as FGFR4 inhibitors” (Incyte Corporation, priority 2015, dated 2019).
